These results are taken from patent US7494754B2, “Electrophotographic photoreceptor containing asymmetric naphthalenetetracarboxylic acid diimide derivatives and electrophotographic imaging apparatus employing the same” (Samsung Electronics Co., Ltd., priority 2005, dated 2009).

The nature of this data set: Solubility test in organic solvents. It is filed as physicochemical. To be noted: for Methylene chloride (g): amount of solvent required to completely dissolve 1 g of the tested compound / Tetrahydrofuran (g): amount of solvent required to completely dissolve 1 g of the tested compound: room temperature, 1 g compound. The procedure: 1 g of a compound to be tested was poured into a test tube with stirring at room temperature and solvents listed in Table 1 were slowly added drop by drop. The amounts of the solvents required to completely dissolve 1 g of the tested compound were measured.

As for `CCCCN1C(=O)c2ccc3c4c(ccc(c24)C1=O)C(=O)N(C(CC)c1ccccc1)C3=O` (stereo not shown) [Compound (12)], the “Methylene chloride (g): amount of solvent required to completely dissolve 1 g of the tested compound” value (from here on “Methylene chloride (g): amount”) is on record as 1.3 g and the “Tetrahydrofuran (g): amount of solvent required to completely dissolve 1 g of the tested compound” value (“Tetrahydrofuran (g): amount” below) was found to be 7 g.
`CC(c1ccccc1)N1C(=O)c2ccc3c4c(ccc(c24)C1=O)C(=O)N(C(C)c1ccccc1)C3=O` (stereo not shown) [Compound (30)]: the “solubility in organic solvents (in words)” value is “poor solubility”, the “Methylene chloride (g): amount” value was 3.5 g and the “Tetrahydrofuran (g): amount” value amounted to 50 g.
Take `CCCCN1C(=O)c2ccc3c4c(ccc(c24)C1=O)C(=O)N(C(C)c1ccccc1)C3=O` (stereo not shown) [Compound (4)]: the “Methylene chloride (g): amount” value came to 1.5 g and the “Tetrahydrofuran (g): amount” value is 12 g.
For `CCCCN1C(=O)c2ccc3c4c(ccc(c24)C1=O)C(=O)N(CCCC)C3=O` [Compound (40)], the “solubility in organic solvents (in words)” value is given as “very poor solubility”, the “Methylene chloride (g): amount” value was found to be 17 g and the “Tetrahydrofuran (g): amount” value is recorded as 74 g.
